According to patent publication US9610322B2, “Macrocyclic insulin-degrading enzyme (IDE) inhibitors and uses thereof” (President and Fellows of Harvard College, priority 2011, dated 2017):
Blank lines part the entries; values can stand above or below the compound they belong to.

Tests used:
[1] = target: recombinant human IDE (Homo sapiens (Human), UniProt P14735); assay: IDE protease assay, cleavage of fluorophore-quencher substrate peptide; assay type: biochemical; details: for stronger potency of trans-olefin isomer than corresponding cis-olefin isomer: trans vs cis olefin
Chain of recombinant human IDE (P14735 whole entry): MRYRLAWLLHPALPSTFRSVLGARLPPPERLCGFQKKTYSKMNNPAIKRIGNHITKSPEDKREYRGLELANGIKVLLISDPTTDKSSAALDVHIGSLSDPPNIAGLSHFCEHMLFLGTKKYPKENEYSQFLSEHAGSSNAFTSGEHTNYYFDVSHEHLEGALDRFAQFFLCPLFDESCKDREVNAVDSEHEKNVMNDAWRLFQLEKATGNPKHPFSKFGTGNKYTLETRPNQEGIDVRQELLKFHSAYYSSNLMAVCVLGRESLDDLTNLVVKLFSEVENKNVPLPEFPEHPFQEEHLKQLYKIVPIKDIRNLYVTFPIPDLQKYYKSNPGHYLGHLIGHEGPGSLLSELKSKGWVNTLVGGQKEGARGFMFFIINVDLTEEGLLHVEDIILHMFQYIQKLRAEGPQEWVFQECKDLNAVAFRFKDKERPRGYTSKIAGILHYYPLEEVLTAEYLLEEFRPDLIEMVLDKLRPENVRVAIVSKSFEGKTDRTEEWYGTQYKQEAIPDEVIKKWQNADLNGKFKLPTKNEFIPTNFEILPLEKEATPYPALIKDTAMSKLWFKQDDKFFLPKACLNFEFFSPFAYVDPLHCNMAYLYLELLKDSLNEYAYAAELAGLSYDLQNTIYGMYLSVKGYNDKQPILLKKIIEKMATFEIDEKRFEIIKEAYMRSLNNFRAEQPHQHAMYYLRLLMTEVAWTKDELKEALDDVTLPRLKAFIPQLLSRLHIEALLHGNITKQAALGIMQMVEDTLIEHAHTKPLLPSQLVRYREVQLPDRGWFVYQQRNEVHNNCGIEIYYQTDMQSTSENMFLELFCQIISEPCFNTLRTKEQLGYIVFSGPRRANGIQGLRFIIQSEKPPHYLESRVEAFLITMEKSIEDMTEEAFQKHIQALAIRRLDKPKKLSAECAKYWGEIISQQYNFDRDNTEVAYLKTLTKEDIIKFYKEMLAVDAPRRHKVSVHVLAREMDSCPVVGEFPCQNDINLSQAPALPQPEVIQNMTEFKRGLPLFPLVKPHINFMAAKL
Protocol: In vitro protease assays: Protease assays with IDE and neprilysin were performed using Mca-RPPGFSAFK(Dnp)-OH substrate peptide (R&D Systems, SEQ ID NO: 6) and purified recombinant human IDE and recombinant human neprilysin (R&D Systems) according to the manufacturer's instructions. For IDE, 2 μL of small molecule dissolved in DMSO was combined with 48 μL, 0.2 μg/mL IDE in IDE assay buffer (50 mM Tris, 1 M NaCl, pH 7.5). 50 μL, of 20 μM substrate peptide in IDE assay buffer was then added to initiate the reaction, and peptide cleavage was monitored on a fluorescent plate reader (excitation=320 nm; emission=405 nm) for 5 minutes. The above protocol was also used for assaying neprilysin activity, substituting the neprilysin assay buffer (50 mM Tris, 0.05% Brij-35, pH 9.0).
Compounds were synthesized as described previously;^9 in most cases the macrocycle synthesis yielded two isomers corresponding to the cis and trans olefins generated after macrocyclization. Macrocycles were assayed for IDE inhibition by monitoring cleavage of a substrate peptide^13 containing a fluorophore-quencher pair such that cleavage of the model substrate results in increased fluorescence.

[2] = Biodistribution assay after IP injection, LC-MS of organ extracts; assay type: in vivo, mouse; details: mice, intraperitoneal injection, 45 minutes
Protocol: Macrocycles were diluted to 0.1 mg/mL or 1 mg/mL in PBS and IP-injected into a mouse to produce a concentration of 1 mg/kg or 10 mg/kg, respectively. After 45 minutes, organs were harvested, and the small-molecule fractions were extracted into a 2:1:1 mixture of chloroform:methanol:water. Samples were evaporated under a stream of nitrogen, resuspended in 100 μL of chloroform and subjected to LC-MS analysis.
The tissue distribution of enriched macrocycles after i.p. injection was examined. […] Briefly, compounds were injected at different concentrations intraperitoneally into mice, and plasma, brain, and pancreas were harvested after 45 minutes. Vehicle-only injections were performed as negative controls. We determined the relative amount of macrocycle present by extracting the organs with organic solvents and quantifying the amount of compound present by LC-MS analysis.

[3] = test system: plasma IDE activity; assay: Plasma IDE activity in mice injected with inhibitor; assay type: in vivo
Protocol: Finally, we compared plasma IDE activity in mice injected with 6b with plasma IDE activity in control mice injected with vehicle alone (18:1:1, saline:DMSO:Tween-80). Plasma IDE activity 60 min after 10 mg/kg, 20 mg/kg, or 40 mg/kg i.p. injection of 6b was inhibited by ≧90% (FIG. 9).

[4] = Preliminary pharmacokinetics after i.p. injection, LC-MS quantitation; details: mice
[5] = previous indications; cited from earlier work

- stronger potency of trans-olefin isomer than corresponding cis-olefin isomer [1]: > 10 fold
Structure (SMILES): NC(=O)C1CCCCNC(=O)C(Cc2ccc(C(=O)c3ccccc3)cc2)NC(=O)C(CC2CCCCC2)NC(=O)CC(O)C(CC2CCCCC2)NC(=O)C=CC(=O)N1 (mixture of isomers) [Compound 3]

- effect of modification on IDE inhibitor potency relative to 6b, in words ([1]; derivatives of 6b): equipotent
Structure (SMILES): NCCCC[C@@H]1NC(=O)/C=C/C(=O)NC(C(N)=O)CCCCNC(=O)[C@@H](Cc2ccc(C(=O)c3ccccc3)cc2)NC(=O)[C@H](CC2CCCCC2)NC1=O (stereo partly shown) [Compound 20]

- activity against IDE in words [1]: inactive
Structure (SMILES): NC(=O)CCC1NC(=O)C=CC(=O)NC(C(N)=O)CCCCNC(=O)CNC(=O)C(CC2CCCCC2)NC1=O (stereo not shown) [Compound 1]

Structure (SMILES): NC(=O)CCC1NC(=O)C=CC(=O)NC(C(N)=O)CCCCNC(=O)C(Cc2ccc(C(=O)c3ccccc3)cc2)NC(=O)C(CC2CCCCC2)NC1=O (mixture of isomers) [Compound 6]
- stronger potency of trans-olefin isomer than corresponding cis-olefin isomer [1]: > 10 fold

- stronger potency of trans-olefin isomer than corresponding cis-olefin isomer [1]: > 10 fold
Structure (SMILES): NC(=O)C1CCCCNC(=O)C(Cc2ccc(C(=O)c3ccccc3)cc2)NC(=O)C(CC2CCCCC2)NC(=O)C(CC2CC2)NC(=O)C=CC(=O)N1 (mixture of isomers) [Compound 5]

Structure (SMILES): NC(=O)CCC1NC(=O)C=CC(=O)NC(C(N)=O)CCCCNC(=O)C(Cc2ccc(C(=O)c3ccccc3)cc2)NC(=O)C(CC2CCCCC2)NC1=O (stereo not shown) [Compound 6b]
- detection in brain [2]: none of the three compounds could be detected in the brain
- detection in pancreas [2]: could be detected
- detection in plasma [2]: could be detected
- macrocycle concentrations in the plasma compared among compounds [2]: comparable
- inhibition of plasma IDE activity ([3]; 60 min after 10 mg/kg i.p.): ≥ 90%
- inhibition of plasma IDE activity ([3]; 60 min after 20 mg/kg i.p.): ≥ 90%
- inhibition of plasma IDE activity ([3]; 60 min after 40 mg/kg i.p.): ≥ 90%
- peak blood concentration ([4]; i.p. 20 mg/kg): 0.2 µM
- time of peak blood concentration ([4]; i.p. 20 mg/kg): 60 min
- tolerability of injections ([4]; i.p. 20 mg/kg in 18:1:1 saline:DMSO:Tween-80): well tolerated

Structure (SMILES): N=C(N)NCCC[C@H](NC(=O)[C@@H](CC(=O)NO)Cc1ccc2ccccc2c1)C(=O)N[C@@H](Cc1c[nH]c2ccccc12)C(=O)N[C@@H](CCC(=O)O)C(N)=O [Ii1]
- stability under physiological conditions [5]: not sufficiently stable under physiological conditions
